Counter-ions that a name gives are not always drawn.
What was measured:
[1] = tested on: fundus of the stomach (gastric tone) in conscious dogs; test: Gastric tone measured by an electronic barostat in conscious dogs; type: in vivo, beagle dogs; settings: I.D. administration, 0.63 mg/kg, 1 hour observation period, constant pressure of 6 mmHg
From the text: C. Pharmacological Examples C.1. Gastric Tone Measured by an Electronic Barostat in Conscious Dogs
Gastric tone cannot be measured by manometric methods. Therefore an electronic barostat was used. This allows the study of the physiological pattern and regulation of gastric tone in conscious dogs and the influence of test-compounds on this tone.
The barostat consists of an air injection system which is connected by a double-lumen 14-French polyvinyl tube to an ultrathin flaccid polyethylene bag (maximal volume:±700 ml). Variations in gastric tone were measured by recording changes in the volume of air within an intragastric bag, maintained at a constant pressure. The barostat maintains a constant pressure (preselected) within a flaccid air-filled bag introduced into the stomach, changing the volume of air within the bag by an electronic feedback system.
Thus, the barostat measures gastric motor activity (contraction or relaxation) as changes in intragastric volume (decrease or increase resp.) at a constant intragastric pressure. […]
When during a stabilisation period of maximum 90 minutes, the gastric volume is stable during 15 minutes at a constant pressure of 6 mmHg (about 0.81 kPa), the test compound was administered subcutaneously (S.C.), or intraduodenally (I.D.). Test compounds were screened, i.e. changes in gastric volume were measured, usually at 0.63 mg/kg. […]

Row | melting point | Compound | Maximum change in volume (mean maximal change in volume on relaxation of the fundus) [1]
1 | 138 °C | O=C1NCCCN1CC(O)CNCC(O)C1CCc2ccccc2O1 (centres unmarked) (as salt: hydrochloride) (hydrate or solvate) [Compound 15, [S(A)]-1-[3-[[2-(3,4-dihydro-2H-1-benzopyran-2-yl)-2-hydroxyethyl]amino]-2-hydroxypropyl]tetrahydro-2(1H)-pyrimidinone monohydrochloride dihydrate] | 
2 |  | O=C1NCCCN1CC(O)CNCC(O)C1CCc2ccccc2O1 (centres unmarked) [Compound 15, [S(A)]-1-[3-[[2-(3,4-dihydro-2H-1-benzopyran-2-yl)-2-hydroxyethyl]amino]-2-hydroxypropyl]tetrahydro-2(1H)-pyrimidinone monohydrochloride dihydrate] | 5 mL
